Columns and labels:
Type in all cases: functional
[1] = system: CAKI-1; test: Compound was tested in vitro for growth inhibition of CAKI-1 cells derived from human renal tumor
[2] = system: P388; test: Compound was tested in vitro for growth inhibition of murine leukemic P388 cells; conditions: Mus musculus
[3] = system: MCF7; test: Compound was tested in vitro for growth inhibition of MCF-7 cells derived from human breast tumor.
[4] = system: CCRF-CEM; test: Compound was tested in vitro for growth inhibition of CCRF-CEM cells derived from human leukemia.
[5] = system: NCI-H522; test: Compound was tested in vitro for growth inhibition of […] cells derived from human lung tumor
[6] = system: COLO 205; test: Compound was tested in vitro for growth inhibition of COLO 205 cells derived from human colon tumor
[7] = system: NCI/ADR-RES; test: Compound was tested in vitro for growth inhibition of MCF-7/ADR cells that exhibit MDR phenotype.; conditions: Homo sapiens
[8] = system: PC-3; test: Compound was tested in vitro for growth inhibition of PC 3 cells derived from human prostate tumor
[9] = system: SK-MEL-5; test: Compound was tested in vitro for growth inhibition of SK-MEL-5 cells derived from human melanoma.
[10] = system: SF-295; test: Compound was tested in vitro for growth inhibition of SF 295 cells derived from CNS tumor; conditions: Homo sapiens
[11] = system: OVCAR-8; test: Compound was tested in vitro for growth inhibition of OVCAR-8 cells derived from human ovarian tumor
[12] = system: MDA-N; test: Compound was tested in vitro for growth inhibition of MDA-N cells derived from human breast tumor
[13] = system: P388/ADR; test: Compound was tested in vitro for growth inhibition of murine leukemic P388/ADR cells that exhibit MDR phenotype.; conditions: Mus musculus

| GI50 [2] [nM] | GI50 [3] [nM] | GI50 [4] [nM] | GI50 [6] [nM] | GI50 [8] [nM] | GI50 [9] [nM] | GI50 [11] [nM] | GI50 [13] [nM] | SMILES | GI50 [1] [nM] | GI50 [5] [nM] | GI50 [7] [nM] | GI50 [10] [nM] | GI50 [12] [nM] |
| --- | --- | --- | --- | --- | --- | --- | --- | --- | --- | --- | --- | --- | --- |
| 140 | 430 | 51 | 19 | 62 | 20 | 91 | 340 | O=S(=O)(Nc1ccc2c(c1)OCCO2)c1c(F)c(F)c(F)c(F)c1F | 63 | 26 | 410 | 54 | 40 |
| 37 | 120 | 68 | 220 | 468 | 151 | 437 | 110 | Cc1ccc(NS(=O)(=O)c2c(F)c(F)c(F)c(F)c2F)cc1C | 479 | 49 | 320 | 479 | 123 |

Second part, the compound before the results:

| SMILES | GI50 [2] [nM] | GI50 [3] [nM] | GI50 [4] [nM] | GI50 [6] [nM] | GI50 [8] [nM] | GI50 [9] [nM] | GI50 [11] [nM] | GI50 [13] [nM] | GI50 [1] [nM] | GI50 [5] [nM] | GI50 [7] [nM] | GI50 [10] [nM] | GI50 [12] [nM] |
| --- | --- | --- | --- | --- | --- | --- | --- | --- | --- | --- | --- | --- | --- |
| CN(C)c1ccc(NS(=O)(=O)c2c(F)c(F)c(F)c(F)c2F)cc1 | 27 | 34 | 320 | 220 | 525 | 183 | 372 | 36 | 417 | 58 | 96 | 501 | 30 |
| O=S(=O)(Nc1ccc2[nH]ccc2c1)c1c(F)c(F)c(F)c(F)c1F | 12 | 28 | < 10 | 14 | 35 | 13 | 50 | 32 | 72 | < 10 | 115 | 40 | 21 |
| COc1ccc(NS(=O)(=O)c2ccc(F)c(F)c2F)cc1 |  |  | 600 | 1300 | 3200 | 1000 | 5000 |  | 5500 | 371 |  | 2700 | 1400 |
| COc1ccc(NS(=O)(=O)c2c(F)c(F)c(F)c(F)c2F)cc1 | 12 | 29 | < 10 | < 10 | < 10 | < 10 | 50 | 34 | 56 | < 10 | 58 | 11 | 41 |
| CC[C@]1(O)C[C@@H]2CN(CCc3c([nH]c4ccccc34)[C@@](C(=O)OC)(c3cc4c(cc3OC)N(C)[C@H]3[C@@](O)(C(=O)OC)[C@H](OC(C)=O)[C@]5(CC)C=CCN6CC[C@]43[C@@H]65)C2)C1 [VINBLASTINE] | 4.1 | 2.3 |  |  |  |  |  | 470 |  |  | 350 |  |  |
| CC(=O)O[C@H]1C(=O)[C@@]2(C)[C@H]([C@H](OC(=O)c3ccccc3)[C@]3(O)C[C@H](OC(=O)[C@H](O)[C@@H](NC(=O)c4ccccc4)c4ccccc4)C(C)=C1C3(C)C)[C@]1(OC(C)=O)CO[C@@H]1C[C@@H]2O [PACLITAXEL] | 16 | 1.1 |  |  |  |  |  | > 15000 |  |  | > 15000 |  |  |
